Laboratory results from patent US20070128217A1 (priority 2003, published 2007).

Assays:
[1] = tested on: rabbit serum obtained by immunizing a rabbit with the SARS-CoV strain Frankfurt 1; assay type: binding; design: Binding of a rabbit serum to linear peptides / Binding of a rabbit serum to looped peptides / Rabbit serum linear peptides / Rabbit serum looped peptides / Binding of a rabbit serum to linear peptides of protein N of SARS-CoV Urbani (Rabbit serum linear peptides) / Binding of a rabbit serum to looped/cyclic peptides of protein N of SARS-CoV Urbani (Rabbit serum looped peptides): unit not given here
[2] = tested on: antibodies in sera from SARS patients (sera 1a, 1b, 2, 6, 37, 62, London, SARS-yellow, SARS-green); assay type: binding, human; design: Binding of serum 6 to linear peptides of protein X1 of SARS-CoV Urbani / Binding of serum 37 to linear peptides of protein X1 of SARS-CoV Urbani / Binding of serum 6 to looped/cyclic peptide (PEPSCAN-ELISA) / Binding of serum 37 to looped/cyclic peptide (PEPSCAN-ELISA) / Binding of serum 37 to looped/cyclic peptides of protein X1 of SARS-CoV Urbani / Binding of serum 6 to linear peptides of protein X2 / Binding of serum 37 to linear peptides of protein X2 / Binding of serum 37 to looped/cyclic peptides of protein X2 of SARS-CoV Urbani / Binding of serum 6 to linear peptides of protein M of SARS-CoV Urbani / Binding of serum 37 to linear peptides of protein M of SARS-CoV Urbani / Binding of serum 6 to looped/cyclic peptides of protein M of SARS-CoV Urbani / Binding of serum 37 to looped/cyclic peptides of protein M of SARS-CoV Urbani / Binding of serum 6 to linear peptides of protein X3 of SARS-CoV Urbani / Binding of serum 37 to linear peptides of protein X3 of SARS-CoV Urbani / Binding of serum 37 to looped/cyclic peptides of protein X3 of SARS-CoV Urbani / Binding of serum 6 to linear peptides of protein X4 of SARS-CoV Urbani / Binding of serum 37 to linear peptides of protein X4 of SARS-CoV Urbani / Binding of serum 37 to looped/cyclic peptides of protein X4 of SARS-CoV Urbani / Binding of serum 6 to linear peptides of protein X5 of SARS-CoV Urbani / Binding of serum 37 to linear peptides of protein X5 of SARS-CoV Urbani / Binding of serum 37 to looped/cyclic peptides of protein X5 of SARS-CoV Urbani / Binding of serum 6 to linear peptides of protein N of SARS-CoV Urbani / Binding of serum 37 to linear peptides of protein N of SARS-CoV Urbani / Binding of serum 6 to linear peptide (PEPSCAN-ELISA) / Binding of serum 1a to looped/cyclic peptides of protein N of SARS-CoV Urbani / Binding of serum 1b to looped/cyclic peptides of protein N of SARS-CoV Urbani / Binding of serum 2 to looped/cyclic peptides of protein N of SARS-CoV Urbani / Binding of serum 6 to looped/cyclic peptides of protein N of SARS-CoV Urbani / Binding of serum 37 to looped/cyclic peptides of protein N of SARS-CoV Urbani / Binding of serum 62 to looped/cyclic peptides of protein N of SARS-CoV Urbani / Binding of serum London to looped/cyclic peptides of protein N of SARS-CoV Urbani / Binding of serum SARS-green to looped/cyclic peptides of protein N of SARS-CoV Urbani: unit not given here
[3] = tested on: recombinant human anti-SARS-CoV antibody 03-018; assay type: binding; design: Binding of antibody 03-018 to linear peptides of the N protein of SARS-CoV Urbani / Binding of antibody 03-018 to looped/cyclic peptides of the N protein of SARS-CoV Urbani: unit not given here
[4] = tested on: control sera (pooled serum of ten healthy LUMC hospital workers; commercial negative donor pooled serum from the Dutch bloodbank); assay type: binding, human; design: Binding of Control serum LUMC to linear peptides / Binding of Control serum Blood-bank to linear peptides / Binding of Control serum LUMC to looped peptides / Binding of Control Serum Blood-Bank to Looped peptides / Binding of Control serum LUMC to linear peptides of the protein M of SARS-CoV Urbani / Binding of Control serum Blood-bank to linear peptides of the protein M of SARS-CoV Urbani / Binding of Control serum LUMC to looped peptides of the protein M of SARS-CoV Urbani / Binding of Control Serum Blood-Bank to Looped peptides of the protein M of SARS-CoV Urbani: unit not given here

Row | Sequence | Binding of a rabbit serum to linear peptides of protein N of SARS-CoV Urbani (Rabbit serum linear peptides) [1] | Binding of a rabbit serum to looped/cyclic peptides of protein N of SARS-CoV Urbani (Rabbit serum looped peptides) [1] | Binding of serum 1a to linear peptides of protein N of SARS-CoV Urbani [2] | Binding of serum 1a to looped/cyclic peptides of protein N of SARS-CoV Urbani [2] | Binding of serum 1b to linear peptides of protein N of SARS-CoV Urbani [2] | Binding of serum 1b to looped/cyclic peptides of protein N of SARS-CoV Urbani [2] | Binding of serum 2 to linear peptides of protein N of SARS-CoV Urbani [2] | Binding of serum 2 to looped/cyclic peptides of protein N of SARS-CoV Urbani [2] | Binding of serum 6 to linear peptides of protein N of SARS-CoV Urbani [2] | Binding of serum 6 to looped/cyclic peptides of protein N of SARS-CoV Urbani [2] | Binding of serum 37 to linear peptides of protein N of SARS-CoV Urbani [2] | Binding of serum 37 to looped/cyclic peptides of protein N of SARS-CoV Urbani [2] | Binding of serum 62 to linear peptides of protein N of SARS-CoV Urbani [2] | Binding of serum 62 to looped/cyclic peptides of protein N of SARS-CoV Urbani [2] | Binding of serum London to linear peptides of protein N of SARS-CoV Urbani [2] | Binding of serum London to looped/cyclic peptides of protein N of SARS-CoV Urbani [2] | Binding of serum SARS-green to linear peptides of protein N of SARS-CoV Urbani [2] | Binding of serum SARS-green to looped/cyclic peptides of protein N of SARS-CoV Urbani [2] | Binding of serum SARS-yellow to linear peptides of protein N of SARS-CoV Urbani [2] | Binding of serum SARS-yellow to looped/cyclic peptides of protein N of SARS-CoV Urbani [2] | further results
1 | TDSTDNNQNGGRNGA | 0.1 | 0.2 | 0.3 | 0.4 | 0.2 | 0.3 | 0.2 | 0.6 | 0.3 | 0.3 | 1.0 | 0.7 | 0.8 | 0.3 | 0.6 | 0.6 | 1.0 | 0.8 | 0.7 | 0.7 | Binding of antibody 03-018 to linear peptides of the N protein of SARS-CoV Urbani [3]: 0.2; Binding of antibody 03-018 to looped/cyclic peptides of the N protein of SARS-CoV Urbani [3]: 0.2; Binding of Control Serum Blood-Bank to Looped peptides [4]: 0.7; Binding of Control serum Blood-bank to linear peptides [4]: 1.1; Binding of Control serum LUMC to linear peptides [4]: 0.8; Binding of Control serum LUMC to looped peptides [4]: 0.8
2 | LNKHIDAYKTFPPTE | 0.1 | 0.4 | 0.2 | 0.2 | 0.1 | 0.1 | 0.1 | 0.2 | 0.1 | 0.1 | 0.7 | 0.4 | 0.5 | 0.3 | 0.4 | 0.3 | 0.4 | 0.2 | 0.5 | 0.1 | Binding of antibody 03-018 to linear peptides of the N protein of SARS-CoV Urbani [3]: 0.1; Binding of antibody 03-018 to looped/cyclic peptides of the N protein of SARS-CoV Urbani [3]: 0.2; Control Serum Blood-Bank Looped peptides [4]: 0.4; Control serum Blood-bank linear peptides [4]: 0.5; Control serum LUMC linear peptides [4]: 0.5; Control serum LUMC looped peptides [4]: 0.4
3 | PRITFGGPTDSTDNN | 0.3 | 0.4 | 0.2 | 0.3 | 0.1 | 0.2 | 0.2 | 0.3 | 0.1 | 0.2 | 0.7 | 0.7 | 0.6 | 0.5 | 0.5 | 0.3 | 0.6 | 0.8 | 0.3 | 0.4 | Recognition of the peptide by antibody 03-018 [3]: recognized; Binding of Control Serum Blood-Bank to Looped peptides [4]: 0.6; Binding of Control serum Blood-bank to linear peptides [4]: 0.6; Binding of Control serum LUMC to linear peptides [4]: 0.5; Binding of Control serum LUMC to looped peptides [4]: 0.6
4 | RGPEQTQGNFGDQDL | 0.2 | 0.3 | – | 0.4 | – | 0.4 | – | 0.4 | – | 0.2 | – | 0.6 | – | 0.5 | – | 0.4 | – | 0.6 | – | 0.6 | Recognition of the peptide by sera of SARS-CoV infected individuals, and form (linear, looped/cyclic) in which it is recognized [2]: recognized in linear form; Binding of antibody 03-018 to linear peptides of the N protein of SARS-CoV Urbani [3]: 0.1; Binding of antibody 03-018 to looped/cyclic peptides of the N protein of SARS-CoV Urbani [3]: 0.2; Binding of Control Serum Blood-Bank to Looped peptides [4]: 0.4; Binding of Control serum Blood-bank to linear peptides [4]: 0.7; Binding of Control serum LUMC to linear peptides [4]: 0.7; Binding of Control serum LUMC to looped peptides [4]: 0.6
5 | APSASAFFGMSRIGM | 0.1 | 0.4 | 0.2 | 0.4 | 0.1 | 0.3 | 0.2 | 0.7 | 0.1 | 0.4 | 0.5 | 0.7 | 0.5 | 0.9 | 0.6 | 2.0 | 0.2 | 0.5 | 0.4 | 0.6 | Binding of antibody 03-018 to linear peptides of the N protein of SARS-CoV Urbani [3]: 0.1; Binding of antibody 03-018 to looped/cyclic peptides of the N protein of SARS-CoV Urbani [3]: 0.2; Control Serum Blood-Bank Looped peptides [4]: 0.8; Control serum Blood-bank linear peptides [4]: 0.7; Control serum LUMC linear peptides [4]: 0.5; Control serum LUMC looped peptides [4]: 0.6
